Data from paper PMC4430089 (Journal of peptide science : an official publication of the …, 2014).

What was measured:
[1] = Circular dichroism: conformation and thermal unfolding; assay type: physicochemical; conditions: for FF @ 37°C (folded fraction): calculated from CD molar ellipticity at 224 nm: FF=CD37-CD80/CDfolded-CD80
[2] = test system: 3T3 Swiss mice fibroblasts; experiment: Cellular uptake by confocal microscopy; assay type: cell-based; conditions: 15 μM peptide in PBS, 30 min; for Preferential accumulation site within the cell: confocal microscopy without DAPI; for Cellular uptake (FITC fluorescence from cells): confocal microscopy, 37°C
[3] = test system: Jurkat E6 human leukemia cells; experiment: Cellular uptake by flow cytometry; assay type: cell-based; conditions: 15μM peptide, 10 min
[4] = test system: 3T3 Swiss mice fibroblasts; experiment: Cell viability, Trypan Blue assay; conditions: 15 μM peptide in PBS, 30 min exposure, three repeats on two plates

Substance | FF @ 37°C (folded fraction) [1] | Preferential accumulation site within the cell [2] | Cellular uptake (FITC fluorescence from cells) [2] | Fluorescence intensity of cells lower than cells incubated with V2 [3] | Number of cells that uptake the peptide [3] [%] | Cytotoxicity compared to control (cell viability) [4] | Tm lower than Tm of V1 ([1]; difference of CD Tm values) [°C]
FITC-AβGG-POGPOGPOGPOGPOGPOGPOGPOG-RRGRRG [Peptide V1] | 0.90 | accumulates to larger extend in cytoplasm than V2, with only small amount reaching the nucleus | effectively penetrate the cellular membrane | about 20% | 71.2 | no significant (p>0.05) toxicity | –
FITC-AβGG-POGPOGPOGPOGPOGPOGPOGPOG-RRRRRR [Peptide V2] | 0.82 | stronger preference to accumulate within the nuclear bodies | effectively penetrate the cellular membrane | – | 72.8 | no significant (p>0.05) toxicity | 3.2
